Test results: patent US6844320B1, “Treatment of preeclampsia, toxemia and preterm labor with combination of progestational agent and a nitric oxide synthase substrate and/or donor” (Board of Regents, The University of Texas System, priority 1993, dated 2005)
Entries after “also recorded” stand apart in the source; their conditions may differ. Marks after values point to notes of the source that are not given here.

Tests used:
[1] = test system: spontaneously contracting uterine strips from rat; assay: Relaxation of spontaneously contracting uterine strips in muscle baths; format: cell-based
Description: The tissues were obtained on days 17-22 (d17, d18, d19 and d22) of gestation, on day 22 (d22 del) during spontaeous delivery (1-3 pups delivered), or on 1 (d1pp) and 2 (d2pp) days postpartum. […] Data are analyzed by repeated measures ANOVA on seven groups. […] Each data point represent mean±S.E.M. The total number of strips studied at each time period was 8-16 from 4-6 animals per group.
Each upstroke from baseline represents a contraction.
In the experiments whose results are shown by the graph of FIG. 2, the tissues were obtained on days 17-22 (d17, d18, d19 and d22) of gestation, on day 22 (d22 del) during spontaneous delivery (1-3 pups delivered), or on 1 (d1pp) and 2 (d2pp) days postpartum. […] Each data point represent mean±SEM. The total number of strips studied at each time period was 8-16 from 4-6 animals per group.

[2] = test system: pregnant rats; assay: L-NAME infusion in pregnant rats: blood pressure; format: in vivo, rat
Text: The data in Table 1 below show the effects of L-NAME infusion on blood pressure (mm Hg) in pregnant rats.

[3] = test system: pregnant rats; assay: L-NAME infusion to pregnant rats: delivery and pups delivered; format: in vivo
Text: The data in Table 2 below show the delivery and the pups delivered of L-NAME infusion to pregnant rats.

[4] = test system: L-NAME-induced "preeclampsia" animals; assay: L-NAME-induced "preeclampsia": blood pressure and fetal weights; format: in vivo; settings: for Effect on L-NAME-induced hypertension (blood pressure): 50 mg L-NAME (FIG. 5); for Effect on fetal weights (pup weights): same L-NAME-treated "preeclamptic" animals (FIG. 6)

`COC(=O)[C@@H](N)CCCNC(=N)N[N+](=O)[O-]` [L-NAME, N^G-nitro-L-arginine methyl ester] was tested, and the “Effect on the relaxation produced by L-arginine” value ([1]; 3 mM (FIG. 1B)) was “reversed”, the “Blood Pressure” value ([2]; L-NAME 25 mg/day infusion, gestation Day 15) was 119 ± 2^a mm Hg and the “Blood Pressure” value ([2]; L-NAME 25 mg/day infusion, gestation Day 18) was 144 ± 4^b mm Hg. For the same molecule, the “Blood Pressure” value ([2]; L-NAME 25 mg/day infusion, gestation Day 22) was 146 ± 2^b mm Hg, the “Blood Pressure” value ([2]; L-NAME 50 mg/day infusion, gestation Day 15) was 123 ± 3^a mm Hg and the “Blood Pressure” value ([2]; L-NAME 50 mg/day infusion, gestation Day 18) was 166 ± 2^c mm Hg. The “Blood Pressure” value ([2]; L-NAME 50 mg/day infusion, gestation Day 22) was 168 ± 3^c mm Hg, the “Day of Delivery” value ([3]; L-NAME 25 mg/day) was 22.4 ± 0.2 and the Weight of pups ([3]; L-NAME 25 mg/day) was 5.05 ± 0.08^b. The “# of dead pups” value ([3]; L-NAME 25 mg/day, 9 animals) was 5, the “Day of Delivery” value ([3]; L-NAME 50 mg/day) was 22.7 ± 0.2 and the Weight of pups ([3]; L-NAME 50 mg/day) was 4.56 ± 0.10^c. For the same molecule, the “# of dead pups” value ([3]; L-NAME 50 mg/day, 10 animals) was 10.

For `N=C(N)NCCC[C@H](N)C(=O)O` [L-arginine], the “Duration of complete inhibition of spontaneous uterine contractions” value ([1]; 0.1 mM to 10 mM, strips from days 17-22 of gestation, delivery, postpartum (FIG. 2)) was “dose-dependent”, the “Relaxation of spontaneously contracting tissues” value ([1]; 1 mM (FIG. 1E), repeatable in the same strip) was “produced relaxation” and the “Relaxation of spontaneously contracting uterine strips” value ([1]; 1-3 mM, rat day 18 of gestation (FIG. 1 A, B, E)) was “substantial relaxations”. For the same molecule, the “Relaxation effects during spontaneous delivery at term and postpartum, compared to all other times” value ([1]; from concentrations of 1 mM (FIG. 2)) was “significantly (P<0.01) decreased”, the “Effect on L-NAME-induced hypertension (blood pressure)” value [4] was “partially reduced blood pressure” and the “Effect on fetal weights (pup weights)” value [4] was “slightly but statistically significant, elevated fetal weights”.

`CN(C)c1ccc2nc3ccc(=[N+](C)C)cc-3sc2c1` [methylene blue] was tested, and the “Effect on the relaxation effect of L-arginine (1 mM)” value ([1]; 0.1 mM, added before the application of L-arginine) was “abolished” and the “Effect on the relaxation produced by L-arginine” value ([1]; (FIG. 1E)) was “reversed”.

In the case of `CCC(=O)[C@@]1(C)CC[C@H]2[C@@H]3CCC4=CC(=O)CCC4=C3CC[C@@]21C` [R 5020, promegestone], the “Effect on L-NAME-induced hypertension (blood pressure)” value [4] is reported as “partinally reduced” and the “Effect on fetal weights (pup weights)” value [4] is reported as “slightly but statistically significant, elevated fetal weights”.

With `[N]=O` [nitric oxide] the “Relaxation of spontaneously contracting uterine strips” value ([1]; 0.1 mM, rat day 18 of gestation (FIG. 1D)) was “substantial relaxations; also recorded: relaxation”.
